Test [1] addresses T1, hVR1 (Homo sapiens, UniProt Q8NER1).
T1 construct: expressed in transfected cells; host or cells: HEK293
The test can be described thus: Human VR1 (hVR1) Binding Assay ([3H] RTX binding). As to conditions: inhibition of [3H] RTX binding, membranes of HEK293 cells transfected with hVR1.

For test [2], the target named is T1, hVR1. The test can be described thus: Human VR1 (hVR1) Functional Assay (FLIPR intracellular calcium, capsaicin challenge). Format: cell-based. The conditions noted are these: capsaicin 0.030 μM, HEK293 cells expressing hVR1; for inhibition at 1 µM: test concentration 1 μM. On the technique in general: Calcium assays in cells follow changes in intracellular calcium, usually with a dye or a luminescent sensor.

Drawing on patent publication US7951829B2, “Benzimidazole modulators of VR1” (Janssen Pharmaceutica NV, priority 2006, dated 2011), this text covers Ki, IC50 and inhibition for 32 molecules.

T1 sequence (Q8NER1 whole entry): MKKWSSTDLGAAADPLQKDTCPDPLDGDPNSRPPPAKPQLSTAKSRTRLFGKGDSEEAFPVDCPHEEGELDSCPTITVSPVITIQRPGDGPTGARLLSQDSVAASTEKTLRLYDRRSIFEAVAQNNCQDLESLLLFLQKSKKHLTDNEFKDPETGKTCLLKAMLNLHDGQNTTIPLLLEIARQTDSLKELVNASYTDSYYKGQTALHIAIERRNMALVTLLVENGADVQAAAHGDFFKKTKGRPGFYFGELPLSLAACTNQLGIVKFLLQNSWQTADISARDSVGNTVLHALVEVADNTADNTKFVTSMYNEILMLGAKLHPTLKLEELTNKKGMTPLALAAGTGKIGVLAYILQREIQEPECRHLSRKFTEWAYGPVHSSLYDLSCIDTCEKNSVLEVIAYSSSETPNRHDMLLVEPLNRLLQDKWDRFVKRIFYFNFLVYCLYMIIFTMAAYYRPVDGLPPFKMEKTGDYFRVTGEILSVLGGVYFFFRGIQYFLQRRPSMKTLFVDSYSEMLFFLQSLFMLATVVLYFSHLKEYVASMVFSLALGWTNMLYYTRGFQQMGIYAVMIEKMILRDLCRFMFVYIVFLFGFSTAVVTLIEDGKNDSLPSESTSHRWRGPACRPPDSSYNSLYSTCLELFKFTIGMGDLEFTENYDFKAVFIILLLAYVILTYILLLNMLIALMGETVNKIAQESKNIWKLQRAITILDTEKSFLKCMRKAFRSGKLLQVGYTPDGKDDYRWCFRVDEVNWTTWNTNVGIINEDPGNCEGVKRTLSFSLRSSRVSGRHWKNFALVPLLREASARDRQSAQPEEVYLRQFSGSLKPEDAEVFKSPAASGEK

Regarding `CC(=O)c1ccccc1-c1ccc2[nH]c(/C=C/c3ccc(C(C)(C)C)cc3)nc2c1` [Cpd 1, (E)-1-(2-{2-[2-(4-tert-butyl-phenyl)-vinyl]-1H-benzimidazol-5-yl}-phenyl)-ethanone], affinity on hVR1 [1] was put at a Ki of 9.7 nM. At hVR1 [2], the IC50 (in general, the concentration that gives 50% inhibition) turned out to be 27 nM and the inhibition (commonly the drop in the measured response relative to a control, in per cent) at 1 µM was 100%.

Take `CC(C)(C)c1ccc(/C=C/c2nc3cc(-c4ccccc4O)ccc3[nH]2)cc1` [Cpd 3, (E)-2-{2-[2-(4-tert-butyl-phenyl)-vinyl]-1H-benzimidazol-5-yl}-phenol]: the Ki (usually a measure of affinity in units of concentration, obtained from inhibition or displacement) at hVR1 [1] was determined as 20 nM. The IC50 at hVR1 [2] was found to be 140 nM.

With `CC(=O)Nc1ccccc1-c1ccc2[nH]c(/C=C/c3ccc(C(C)(C)C)cc3)nc2c1` [Cpd 4, (E)-N-(2-{2-[2-(4-tert-butyl-phenyl)-vinyl]-1H-benzimidazol-5-yl}-phenyl)-acetamide], on hVR1 [1], the Ki amounted to 31 nM. For the same molecule, on hVR1 [2], the IC50 is 400 nM and the inhibition at 1 µM is 78%.

`CC(C)(C)c1ccc(/C=C/c2nc3cc(-c4ccccc4C(N)=O)ccc3[nH]2)cc1` [Cpd 5, (E)-2-{2-[2-(4-tert-butyl-phenyl)-vinyl]-1H-benzimidazol-5-yl}-benzamide] registered a Ki on hVR1 [1] of 17 nM. Also, at hVR1 [2], the IC50 came to 71 nM and the inhibition at 1 µM turned out to be 100%.

Turning to `CC(C)(C)c1ccc(/C=C/c2nc3cc(-c4ccccc4NS(C)(=O)=O)ccc3[nH]2)cc1` [Cpd 9, (E)-N-(2-{2-[2-(4-tert-butyl-phenyl)-vinyl]-1H-benzimidazol-5-yl}-phenyl)-methanesulfonamide], affinity on hVR1 [1] was put at a Ki of 0.9 nM. Further, on hVR1 [2], the IC50 worked out at 2 nM and the inhibition at 1 µM was 99%.

`Oc1ccccc1-c1ccc2[nH]c(/C=C/c3ccc(C(F)(F)F)cc3)nc2c1` [Cpd 14, (E)-2-{2-[2-(4-trifluoromethyl-phenyl)-vinyl]-1H-benzimidazol-5-yl}-phenol] had an inhibition constant (Ki) on hVR1 [1] of 380 nM. In addition, at hVR1 [2], the IC50 came to 1000 nM and the inhibition at 1 µM worked out at 49%.

`CC(=O)c1ccccc1-c1ccc2[nH]c(/C=C/c3ccc(C(F)(F)F)cc3)nc2c1` [Cpd 15, (E)-1-(2-{2-[2-(4-trifluoromethyl-phenyl)-vinyl]-1H-benzimidazol-5-yl}-phenyl)-ethanone] yielded a Ki on hVR1 [1] of 41 nM. Further, on hVR1 [2], the IC50 turned out to be 120 nM and the inhibition at 1 µM worked out at 100%.

At hVR1 [1], `CC(=O)c1ccccc1-c1ccc2[nH]c(/C=C/c3ccc(F)c(F)c3)nc2c1` [Cpd 27, (E)-1-(2-{2-[2-(3,4-difluoro-phenyl)-vinyl]-1H-benzimidazol-5-yl}-phenyl)-ethanone] returned a Ki of 1800 nM. Further, at hVR1 [2], the IC50 worked out at 260 nM and the inhibition at 1 µM worked out at 100%.

`CC(C)(C)c1ccc(CCc2nc3cc(-c4ccccc4O)ccc3[nH]2)cc1` [Cpd 32, 2-{2-[2-(4-tert-butyl-phenyl)-ethyl]-1H-benzimidazol-5-yl}-phenol]: the Ki on hVR1 [1] is 100 nM. For the same molecule, at hVR1 [2], the IC50 worked out at 380 nM and the inhibition at 1 µM was 77%.

`CC(C)(C)OC(=O)Nc1ccccc1-c1ccc2[nH]c(/C=C/c3ccc(C(F)(F)F)cc3)nc2c1` [Cpd 479, (E)-(2-{2-[2-(4-trifluoromethyl-phenyl)-vinyl]-1H-benzimidazol-5-yl}-phenyl)-carbamic acid tert-butyl ester]: on hVR1 [2], the inhibition at 1 µM was 12%.

Take `CSc1ccccc1-c1ccc2[nH]c(/C=C/c3ccc(C(F)(F)F)cc3)nc2c1` [Cpd 480, (E)-5-(2-methylsulfanyl-phenyl)-2-[2-(4-trifluoromethyl-phenyl)-vinyl]-1H-benzimidazole]: the IC50 at hVR1 [2] is more than 500 nM.

As for `O=S(=O)(c1ccc(/C=C/c2nc3cc(-c4ccccc4C(F)(F)F)ccc3[nH]2)cc1)C(F)(F)F` [Cpd 481, (E)-2-[2-(4-trifluoromethanesulfonyl-phenyl)-vinyl]-5-(2-trifluoromethyl-phenyl)-1H-benzimidazole], the inhibition at 1 µM on hVR1 [2] turned out to be 42%.

On to `CC(C)(O)c1ccccc1-c1ccc2[nH]c(/C=C/c3ccccc3C(F)(F)F)nc2c1` [Cpd 482, (E)-2-(2-{2-[2-(2-trifluoromethyl-phenyl)-vinyl]-1H-benzimidazol-5-yl}-phenyl)-propan-2-ol], for which, on hVR1 [2], the IC50 was found to be 13 nM and the inhibition at 1 µM was found to be 100%.

As to `CN(C)Cc1ccccc1-c1ccc2[nH]c(/C=C/c3ccc(C(F)(F)F)cc3)nc2c1` [Cpd 483, (E)-dimethyl-(2-{2-[2-(4-trifluoromethyl-phenyl)-vinyl]-1H-benzimidazol-5-yl}-benzyl)-amine], on hVR1 [2], the inhibition at 1 µM was found to be 21%.

For `O=Cc1ccccc1-c1ccc2[nH]c(/C=C/c3ccc(C(F)(F)F)cc3)nc2c1` [Cpd 484, (E)-2-{2-[2-(4-trifluoromethyl-phenyl)-vinyl]-1H-benzimidazol-5-yl}-benzaldehyde], on hVR1 [2], the IC50 was more than 500 nM.

Regarding `CNCc1ccccc1-c1ccc2[nH]c(/C=C/c3ccc(C(F)(F)F)cc3)nc2c1` [Cpd 485, (E)-methyl-(2-{2-[2-(4-trifluoromethyl-phenyl)-vinyl]-1H-benzimidazol-5-yl}-benzyl)-amine], the half-inhibitory concentration (IC50) on hVR1 [2] was more than 500 nM.

As for `NCc1ccccc1-c1ccc2[nH]c(CCc3ccc(C(F)(F)F)cc3)nc2c1` [Cpd 486, 2-{2-[2-(4-trifluoromethyl-phenyl)-ethyl]-1H-benzimidazol-5-yl}-benzylamine], the IC50 on hVR1 [2] was more than 500 nM.

In the case of `FC(F)(F)c1ccc(/C=C/c2nc3cc(-c4ccccc4C(F)(F)F)ccc3[nH]2)cc1` [Cpd 487, (E)-5-(2-trifluoromethyl-phenyl)-2-[2-(4-trifluoromethyl-phenyl)-vinyl]-1H-benzimidazole], the inhibition at 1 µM on hVR1 [2] came to 20%.

Take `FC(F)(F)Oc1ccccc1-c1ccc2[nH]c(/C=C/c3ccc(C(F)(F)F)cc3)nc2c1` [Cpd 488, (E)-5-(2-trifluoromethoxy-phenyl)-2-[2-(4-trifluoromethyl-phenyl)-vinyl]-1H-benzimidazole]: the inhibition at 1 µM on hVR1 [2] stood at 4%.

Take `CC(C)(O)c1ccccc1-c1ccc2[nH]c(C#Cc3ccccc3)nc2c1` [Cpd 489, 2-[2-(2-phenylethynyl-1H-benzimidazol-5-yl)-phenyl]-propan-2-ol]: on hVR1 [2], the IC50 was 2 nM and the inhibition at 1 µM is 96%.

Take `NS(=O)(=O)c1ccccc1-c1ccc2[nH]c(C#Cc3ccccc3)nc2c1` [Cpd 490, 2-(2-phenylethynyl-1H-benzimidazol-5-yl)-benzenesulfonamide]: on hVR1 [2], the IC50 came to 26 nM and the inhibition at 1 µM came out at 99%.

On to `NS(=O)(=O)NCc1ccccc1-c1ccc2[nH]c(/C=C/c3ccc(C(F)(F)F)cc3)nc2c1` [Cpd 491, (E)-5-(2-aminosulfonylamino-methylphenyl)-2-[2-(4-trifluoromethyl-phenyl)-vinyl]-1H-benzimidazole], for which the concentration for half-maximal inhibition (IC50) on hVR1 [2] is 77 nM.

For the molecule `CC(C)(O)c1ccccc1-c1ccc2[nH]c(C#Cc3ccc(C(F)(F)F)cc3)nc2c1` [Cpd 492, 2-{2-[2-(4-trifluoromethyl-phenylethynyl)-1H-benzimidazol-5-yl]-phenyl}-propan-2-ol], at hVR1 [2], the IC50 came out at 5 nM and the inhibition at 1 µM worked out at 99%.

With `COc1ccc(C2CC2c2nc3cc(-c4ccccc4C(C)(C)O)ccc3[nH]2)cc1` (stereo not shown) [Cpd 494, 2-(2-{2-[2-(4-methoxy-phenyl)-cyclopropyl]-1H-benzimidazol-5-yl}-phenyl)-propan-2-ol], at hVR1 [2], the 50% inhibitory concentration (IC50) was 52 nM and the inhibition at 1 µM stood at 93%.

As for `CC(C)(O)c1ccccc1-c1ccc2[nH]c(C3CC3c3ccc(OC(F)(F)F)cc3)nc2c1` (stereo not shown) [Cpd 497, 2-(2-{2-[2-(4-trifluoromethoxy-phenyl)-cyclopropyl]-1H-benzimidazol-5-yl}-phenyl)-propan-2-ol], on hVR1 [2], the IC50 was 39 nM and the inhibition at 1 µM is 94%.

`NC(=O)c1ccccc1-c1ccc2[nH]c(C3CC3c3ccc(C(F)(F)F)cc3)nc2c1` (stereo not shown) [Cpd 498, 2-{2-[2-(4-trifluoromethyl-phenyl)-cyclopropyl]-1H-benzimidazol-5-yl}-benzamide]: at hVR1 [2], the IC50 was 19 nM and the inhibition at 1 µM worked out at 100%.

Regarding `CC(C)(C)NS(=O)(=O)c1ccccc1-c1ccc2[nH]c(C3CC3c3ccc(C(F)(F)F)cc3)nc2c1` (stereo not shown) [Cpd 499, N-tert-butyl-2-{2-[2-(4-trifluoromethyl-phenyl)-cyclopropyl]-1H-benzimidazol-5-yl}-benzenesulfonamide], the inhibition at 1 µM at hVR1 [2] is 7%.

As to `CS(=O)(=O)c1ccccc1-c1ccc2[nH]c(C3CC3c3ccc(C(F)(F)F)cc3)nc2c1` (stereo not shown) [Cpd 500, 5-(2-methanesulfonyl-phenyl)-2-[2-(4-trifluoromethyl-phenyl)-cyclopropyl]-1H-benzimidazole], on hVR1 [2], the IC50 was determined as 19 nM and the inhibition at 1 µM amounted to 97%.

As to `CC(C)(O)c1ccccc1-c1ccc2[nH]c([C@@H]3C[C@H]3c3ccc(C(F)(F)F)cc3)nc2c1` [Cpd 501, 2-(2-{2-[(1R,2R)-2-(4-trifluoromethyl-phenyl)-cyclopropyl]-1H-benzimidazol-5-yl}-phenyl)-propan-2-ol], at hVR1 [2], the IC50 is 85 nM and the inhibition at 1 µM was 99%.

As for `NS(=O)(=O)c1ccccc1-c1ccc2[nH]c([C@@H]3C[C@H]3c3ccc(C(F)(F)F)cc3)nc2c1` [Cpd 502, 2-{2-[(1R,2R)-2-(4-trifluoromethyl-phenyl)-cyclopropyl]-1H-benzimidazol-5-yl}-benzenesulfonamide], on hVR1 [2], the concentration for half-maximal inhibition (IC50) stood at 190 nM and the inhibition at 1 µM came out at 82%.

As for `CC(C)(O)c1ccccc1-c1ccc2[nH]c([C@H]3C[C@@H]3c3ccc(C(F)(F)F)cc3)nc2c1` [Cpd 503, 2-(2-{2-[(1S,2S)-2-(4-trifluoromethyl-phenyl)-cyclopropyl]-1H-benzimidazol-5-yl}-phenyl)-propan-2-ol], at hVR1 [2], the IC50 came to 10 nM and the inhibition at 1 µM was determined as 93%.

For `NS(=O)(=O)c1ccccc1-c1ccc2[nH]c([C@H]3C[C@@H]3c3ccc(C(F)(F)F)cc3)nc2c1` [Cpd 504, 2-{2-[(1S,2S)-2-(4-trifluoromethyl-phenyl)-cyclopropyl]-1H-benzimidazol-5-yl}-benzenesulfonamide], at hVR1 [2], the IC50 is 22 nM and the inhibition at 1 µM is 95%.
